Experimental data published in the METLIN SMRT retention time set (Domingo-Almenara et al. 2019).

Test: gradient 5% acetonitrile 3 min, to 50% in 2 min, to 85% in 15 min, held 3 min, 100 µL/min
Conditions: column: Zorbax Extend-C18 2.1 x 50 mm; eluents: water / acetonitrile, 0.1% formic acid
Procedure, shortened: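 Pure standards were analyzed in mixtures of ~100 molecules using HPLC coupled to a quadrupole time-of-flight mass spectrometer, in both positive and negative ionization mode. Separation used a Zorbax Extend-C18 column (2.1 × 50 mm, 1.8 μm) at 100 μL/min, with water and acetonitrile each containing 0.1% formic acid. Dead and dwell volumes were 40 μL and 900 μL, and data were collected over 3 months. Retention time was read from computationally picked adduct peaks, each inspected manually.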

Row | SMILES | RP-LC retention time [s]
1 | Cc1ccc(-c2noc(Cn3nc(-c4ccccc4)ccc3=O)n2)cc1 | 1080
2 | CCN(CC)CCNC(=O)Cn1c2ccccc2c2cnn(C)c(=O)c21 | 599
3 | Cc1ccc(-c2c(C)noc2C)cc1S(=O)(=O)NCc1ccccc1 | 924
4 | Cc1ccc(-c2nc3ccc(Cl)cn3c2Nc2ccc3c(c2)OCO3)cc1 | 708
5 | COC(=O)CN1C(=O)Nc2ccc(C)cc2C1c1ccccc1 (stereo not given) | 840
6 | COC(=O)c1c(NCc2ccccc2Br)c2cc(F)ccc2[nH]c1=O | 787
7 | Cc1c(Cl)cccc1-n1nc(C)c2c(C(F)(F)F)cc(OCC(=O)NC(C)C)nc21 | 1160
8 | Cc1cc2nc(C(=O)Nc3ccc(C)c(C)c3)cc(C)n2n1 | 1090
9 | CCS(=O)(=O)N1CCCc2cc(C(=O)NC(C)(C)C)ccc21 | 826
10 | CCOC(=O)Cc1nc(-c2cncc(Br)c2)n[nH]1 | 673
11 | O=C(O)Cc1csc(NC(=O)C2CCC(=O)N2)n1 (stereo not given) | 528
12 | CCOc1ccc(NC(=O)CN2C(=O)c3ccccc3Sc3ncccc32)cc1 | 843
13 | O=C(NCC1(c2cccs2)CCOCC1)c1cccs1 | 705
14 | COc1ccc(S(=O)(=O)N2CCC[C@@H]2C(=O)NCc2csc(C)n2)cc1OC | 662
15 | COc1ccc(CN2CCC([C@@H]3CNC[C@H]3CO)CC2)c(OC)c1 | 549
16 | Cn1c(=O)oc2cc(-c3noc(-c4cccc(F)c4)n3)ccc21 | 1020
17 | CCc1c(C(=O)O)nnn1-c1ccc(Cl)cc1 | 748
18 | O=C(C1CCN(S(=O)(=O)N2CCOCC2)CC1)N1CCC(c2nc(C3CCOCC3)no2)C1 (stereo not given) | 656
19 | CCCC1c2nccn2CCCN1C(=O)c1conc1C (stereo not given) | 568
20 | CNC(=O)Cc1ccc(NS(=O)(=O)Cc2ccc(Cl)cc2)cc1 | 703
21 | COCc1noc(C2CN(C(=O)c3cn[nH]c3)CC23CCCC3)n1 (stereo not given) | 637
22 | C[C@H]1CN(C(=O)c2nn(C)c3ccccc23)C[C@@H]1c1nc(-c2cccnc2)no1 | 862
23 | Cc1cc(N2CCOCC2)nc(N2CCN(C(=O)C3CCCCC3)CC2)n1 | 625
24 | Cc1ccccc1NC(=O)Cn1cnc2c(sc3nc(-c4ccccc4)ccc32)c1=O | 961
25 | Cc1ncsc1CN1CCC(Oc2ccccc2-c2nc(-c3ccccc3)no2)C1 (stereo not given) | 732
26 | CCc1ccc(NC(=O)CN2CCc3[nH]c4c(OC)ccc(Cl)c4c(=O)c3C2)cc1 | 661

Row | SMILES | RP-LC retention time [s]
27 | O=C(Nc1nccs1)c1ccccc1OCc1nc(-c2ccccc2)no1 | 953
28 | CCc1ccccc1NC(=O)Cn1ncc2c(c1=O)N(CC1CC1)C(=O)CS2 | 757
29 | Cc1ccc(-c2nc(NC(=O)Cc3csc(C)n3)sc2C)cc1 | 944
30 | Cc1ccc(-c2noc(CSc3nc4cc5c(cc4c(=O)n3CC3CCCO3)OCO5)n2)cc1 (stereo not given) | 1160
31 | CCc1ccc(S(=O)(=O)N2CCC3(CC2)NCCN=C3NCc2ccccc2)cc1 | 742
32 | CCc1ccc(-c2nc3sc(C(=O)NC)c(C)n3c2NCCOC)cc1 | 754
33 | CCCCN(C)C(=O)Cn1c(CNC(=O)c2ccco2)nc2ccccc21 | 629
34 | CCOC(=O)c1c(C)c(CCC(=O)NCCN2CCCCCC2)c(C)n1C | 656
35 | O=C1NCCCn2cc(S(=O)(=O)N3CCCCCC3)cc21 | 661
36 | Cc1ccccc1-c1cn2ccn(-c3ccc4c(c3)CCC4)c(=O)c2n1 | 962
37 | CCCn1cc(CCNC(=O)C2CCCCC2)c2cccnc21 | 772
38 | CCOC(=O)c1ccc(N2C(=O)c3n[nH]c(C)c3C2c2ccc(OC)cc2OC)cc1 (stereo not given) | 878
39 | O=C(NC1CCCCCCC1)C1CCN(S(=O)(=O)c2cc(C(=O)N3CCOCC3)cs2)CC1 | 838
40 | O=C(N[C@@H]1CN(c2ncccn2)C[C@H]1CO)c1ccoc1 | 567
41 | Cc1ccc(NC(=O)Cn2c(-c3cnccn3)nc(C)c(C)c2=O)cc1Cl | 842
42 | COCCNc1c(-c2cccc(C)c2)nc2sc(C(=O)NC3CC3)c(C)n12 | 602
43 | CCn1c(-c2nonc2N)nc2c(C#CC(C)(C)O)ncc(OC[C@H]3CCCNC3)c21 | 645
44 | CCc1ccc(CN2C(=O)CN(S(C)(=O)=O)CC2(C)C(=O)NCc2ccc(C)cc2)cc1 (stereo not given) | 963
45 | COc1cc(-c2noc(C3CC(=O)N(c4ccc(C(C)C)cc4)C3)n2)cc(OC)c1OC (stereo not given) | 605
46 | c1ccc(-c2csc(Nc3ncccn3)n2)cc1 | 906
47 | O=C(CCSCc1cnn(-c2ccccc2)c1-n1cccc1)N1CCN(c2ccccn2)CC1 | 707
48 | O=C(CN1CCN(Cc2ccccc2F)C1=O)N1CCN(c2ccccc2F)CC1 | 857
49 | CCn1c(=O)sc2cc(S(=O)(=O)N3CCC(C(=O)NC4CCCC4)CC3)ccc21 | 845
50 | COc1cccc(CN2CCC3(CC2)NCCc2c3[nH]c3ccc(OC)cc23)c1 | 589
51 | CC(C)c1cc(=O)n(CC(=O)Nc2cccc(-c3cn4c(n3)SCC4)c2)cn1 | 568

Other lines, results leading:

Row | RP-LC retention time [s] | SMILES
52 | 1130 | CCCCS(=O)(=O)N1CCc2nc(-c3ccc(Cl)cc3)ncc2C1
53 | 949 | COC(=O)c1cccc(Nc2c(-c3ccccc3)nc3cnc(Br)cn23)c1
54 | 677 | Cc1ccc2nc3c(C(=O)O)cccn3c(=O)c2c1
55 | 759 | CC1CCN(c2ncc(NC(=O)c3ccc(Br)cc3)cc2C(=O)O)CC1
56 | 892 | Cc1ccc2c(c1)N(S(C)(=O)=O)CCC(C(=O)Nc1ccccc1)O2 (stereo not given)
57 | 855 | Cc1cc(C2CCCN2C(=O)c2cnn3c(C(F)(F)F)cc(-c4ccco4)nc23)on1 (stereo not given)
58 | 584 | Cc1cc(N2CCN(C(=O)CCc3c[nH]c4ccccc34)CC2)nc2ccccc12
59 | 649 | COc1ccc(-c2cc(NS(=O)(=O)c3cnc[nH]3)n(C3CCS(=O)(=O)C3)n2)cc1 (stereo not given)
60 | 706 | COc1ccc2[nH]c(C(=O)N3CCN(C(=O)c4ccco4)CC3)cc2c1
61 | 985 | COc1ccc(NC(=O)N2CC3CCCN3c3ccccc32)cc1 (stereo not given)
62 | 604 | Cn1c(CNC(=O)c2ccc3c(c2)N(S(C)(=O)=O)CC3)nc2ccccc21
63 | 712 | Cn1nc(-c2ccccc2)cc1C(=O)N1CCC(C(=O)Nc2nccs2)CC1
64 | 1300 | COc1cccc(-c2nc(C3CCN(S(=O)(=O)c4ccc(C(C)C)cc4)CC3)no2)c1
65 | 1080 | CCn1c(=O)c(N2CCC(C(=O)NC3CCCCCCC3)CC2)nc2cccnc21
66 | 954 | COc1ccc(C2CCN(C(=O)Nc3cccc(C(F)(F)F)c3)C2)cc1 (stereo not given)
67 | 853 | COc1ccc(CC(=O)N2CCCC2c2nc(-c3ccccc3OC)no2)cc1 (stereo not given)
68 | 850 | CC(C)NC(=O)c1ccc(OCC2CCN(C(=O)c3cc(F)ccc3F)CC2)cc1
69 | 622 | COc1ccc2c(C)c(CC(=O)N3CCC(C(N)=O)CC3)c(=O)oc2c1OC
70 | 650 | Cc1nn(-c2ccc(F)cc2)c(-n2cccc2)c1C(=O)N1CCN(c2ccccn2)CC1
71 | 758 | O=C(c1cnccn1)N1CCC(c2nc(-c3ccccc3)no2)C1 (stereo not given)

Row | RP-LC retention time [s] | SMILES
72 | 992 | CCn1cc(C(=O)Nc2cc(OC)cc(OC)c2)c(S(=O)(=O)N2CCSCC2)n1
73 | 637 | COc1ccc(NC(=O)C2CCCN(c3cc(=O)n(C)c(=O)n3C)C2)cc1OC (stereo not given)
74 | 882 | Cc1ccc2[nH]cc(CCN3CC(C(=O)Nc4ccc(Cl)cc4)CC3=O)c2c1 (stereo not given)
75 | 822 | Cc1ccc(C(=O)NCC2CC(=O)N(c3ccc(Cl)cc3)C2)cc1[N+](=O)[O-] (stereo not given)
76 | 883 | COc1ccccc1CNC(=O)C1CCCN(c2ccc(=O)n(-c3cccc(Cl)c3)n2)C1 (stereo not given)
77 | 959 | Cc1sc(-c2nc(-c3cccc(F)c3)no2)cc1S(=O)(=O)N1CCN(c2ccccn2)CC1
78 | 761 | CC(C)N1CCn2c(nc3cc(C(=O)NCc4ccc(Br)cc4)ccc32)C1=O
79 | 729 | CCN1CCCn2cc(S(=O)(=O)Nc3cc(F)ccc3C)cc2C1=O
80 | 615 | Cn1c(C2CCN(C(=O)Nc3ccc(F)cc3)CC2)cc(=O)n2nccc12
81 | 679 | CCCOc1ccc(CN2CCN(C(=O)c3ccoc3)CC2)cn1
82 | 1360 | Cc1ccc(-c2noc(-c3cccc(S(=O)(=O)NC4CCCC4)c3)n2)cc1
83 | 638 | CCCN1CCN(c2cc(C(=O)O)c3cc(NS(=O)(=O)c4ccc(C)cc4)ccc3n2)CC1
84 | 946 | Cc1ccc(S(=O)(=O)N2C[C@@H]3C[C@H]2C[C@@H]3NC(=O)c2ccccc2)cc1Cl
85 | 839 | CCc1noc(-c2ccnc(-n3cnc(C(=O)NC4CCCC4)c3)c2)n1
86 | 950 | Cc1cc2c(SCC(=O)N3CCCc4ccccc43)ncnc2s1
87 | 654 | O=C(Nc1cccc(F)c1)c1nnc(CSCC(=O)N2CCN(c3ccccn3)CC2)s1
88 | 726 | O=C(c1ccc(-c2cccnc2)nc1)N1CCN(c2cccc(Cl)c2)CC1
89 | 617 | O=C(CCc1nnn2c1CN(C(=O)c1ccc(F)cc1)CC2)NC1CC1
90 | 673 | COc1cc(NC(=O)CSc2nccc(N3CCN(c4cc(C)ccc4C)CC3)n2)cc(OC)c1
